This note sets out measurements from patent publication US9650339B2, “Inhibitors of histone demethylases” (Gilead Sciences, Inc., priority 2013, dated 2017).

For experiment [1], the target named is T1, KDM4C (Homo sapiens, UniProt Q9H3R0).
T1 construct: Full length; host or cells: U2OS
T1 sequence (Q9H3R0 1-1056): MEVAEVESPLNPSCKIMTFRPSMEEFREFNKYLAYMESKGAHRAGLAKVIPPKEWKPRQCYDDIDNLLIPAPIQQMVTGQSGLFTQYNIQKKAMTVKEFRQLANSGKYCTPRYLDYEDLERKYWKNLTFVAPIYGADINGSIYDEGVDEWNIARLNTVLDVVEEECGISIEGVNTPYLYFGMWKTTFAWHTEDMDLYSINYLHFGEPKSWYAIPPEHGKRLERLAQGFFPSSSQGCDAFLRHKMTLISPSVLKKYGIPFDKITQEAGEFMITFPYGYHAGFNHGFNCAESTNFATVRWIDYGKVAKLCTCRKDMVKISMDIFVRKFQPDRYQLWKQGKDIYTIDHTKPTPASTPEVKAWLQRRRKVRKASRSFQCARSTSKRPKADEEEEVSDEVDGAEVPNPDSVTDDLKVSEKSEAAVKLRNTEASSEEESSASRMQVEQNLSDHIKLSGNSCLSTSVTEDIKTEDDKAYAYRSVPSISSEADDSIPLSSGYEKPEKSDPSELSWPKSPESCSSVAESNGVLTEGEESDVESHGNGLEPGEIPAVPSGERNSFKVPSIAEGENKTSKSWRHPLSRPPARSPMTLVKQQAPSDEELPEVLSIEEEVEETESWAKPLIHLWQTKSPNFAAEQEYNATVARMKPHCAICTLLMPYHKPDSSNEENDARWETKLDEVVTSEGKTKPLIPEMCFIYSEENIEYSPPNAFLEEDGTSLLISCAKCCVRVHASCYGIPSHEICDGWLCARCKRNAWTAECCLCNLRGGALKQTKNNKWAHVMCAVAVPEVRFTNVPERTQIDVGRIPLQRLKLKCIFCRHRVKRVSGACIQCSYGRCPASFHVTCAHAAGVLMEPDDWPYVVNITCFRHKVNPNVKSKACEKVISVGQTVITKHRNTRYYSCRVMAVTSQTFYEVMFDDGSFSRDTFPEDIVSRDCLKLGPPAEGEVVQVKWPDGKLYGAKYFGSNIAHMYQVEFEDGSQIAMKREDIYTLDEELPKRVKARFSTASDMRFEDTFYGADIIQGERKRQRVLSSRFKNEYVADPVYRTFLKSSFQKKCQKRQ
Briefly: Histone lysine demethylase immunofluorescence assay, U2OS cells transfected with KDM4C. In kind it is cell-based. To be noted: U2OS cells transfected with pCMVHA KDM4C; mark detected H3K9me3; 20 hours. On the procedure: (§1) U2OS cells were seeded 24 hours before transfection. Transfection was performed with Fugene HD transfection reagent as recommended by the manufacturer. 6 hours after transfection, the cells were harvested and seeded into multi well plates into media containing compound. The media used was DMEM containing 10% FBS and pen/strep. 20 hours after incubation of cells with compounds, the cells were washed in PBS, harvested by fixation with formaldehyde 4% aqueous solution, and washed in PBS. Subsequently, the cells were permeabilized in PBS with 0.2% Triton X-100 for. Blocking was performed in PBS with 0.2% Triton X-100 and 5% FBS. The cells were incubated with primary antibodies in blocking solution over night at 4° C. The primary antibodies used in the assays were HA.11 (Covance, MMS-101P) and the antibody detecting the mark specified in the table below. After incubation with primary antibodies, the cells were washed with PBS, incubated with secondary antibodies (Alexa fluor 594 goat anti rabbit IgG, Invitrogen, A11012; Alexa flour 488 donkey anti mouse IgG, Invitrogen, A21202) and Hoechst, (Sigma, 33342) in blocking solution, and washed again with PBS. Finally, PBS was added and high throughput imaging and analysis were performed by an IN Cell Analyzer 1000 (GE Healthcare). The robot software analyzed individual cells and divided these into HA+ (transfected cells) and HA− (non-transfected cells). The IC50 values were based on an average measure of the staining of the mark specified in the table below in the transfected cells.

Experiment [2] concerns the target T2, KDM5B (Homo sapiens, UniProt Q9UGL1).
T2 construct: (a.a. 1-752); host or cells: U2OS
T2 sequence (Q9UGL1 1-752): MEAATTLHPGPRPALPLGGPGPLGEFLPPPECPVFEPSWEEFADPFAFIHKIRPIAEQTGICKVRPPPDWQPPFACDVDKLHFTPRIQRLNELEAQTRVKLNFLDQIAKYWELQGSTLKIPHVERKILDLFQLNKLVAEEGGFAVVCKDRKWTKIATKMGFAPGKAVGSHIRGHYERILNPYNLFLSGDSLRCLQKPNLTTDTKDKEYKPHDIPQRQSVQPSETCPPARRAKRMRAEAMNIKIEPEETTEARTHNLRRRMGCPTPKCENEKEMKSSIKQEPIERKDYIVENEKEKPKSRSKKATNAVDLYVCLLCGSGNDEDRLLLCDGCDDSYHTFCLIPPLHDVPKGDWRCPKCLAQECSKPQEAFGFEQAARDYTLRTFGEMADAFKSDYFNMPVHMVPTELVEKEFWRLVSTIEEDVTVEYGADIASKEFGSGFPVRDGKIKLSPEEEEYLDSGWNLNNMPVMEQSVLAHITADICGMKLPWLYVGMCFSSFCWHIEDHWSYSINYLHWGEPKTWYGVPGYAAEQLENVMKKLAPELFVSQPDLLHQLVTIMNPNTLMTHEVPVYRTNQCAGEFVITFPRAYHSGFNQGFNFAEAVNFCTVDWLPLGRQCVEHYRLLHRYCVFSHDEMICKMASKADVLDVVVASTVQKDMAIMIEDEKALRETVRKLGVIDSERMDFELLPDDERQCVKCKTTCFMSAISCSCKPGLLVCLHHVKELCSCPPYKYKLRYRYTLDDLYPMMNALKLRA
Briefly: Histone lysine demethylase immunofluorescence assay, U2OS cells transfected with KDM5B. The format is cell-based. To be noted: U2OS cells transfected with pCMVHA KDM5B; mark detected H3K4me2; 20 hours. Here is the method: as §1

Bounds are passed on as bounds.

What is called IC50 is the concentration that gives 50% inhibition. Regarding `CCN1CCCC1CNC(=O)CNCc1cc(C=O)ccn1` (stereo not drawn) [Compound 104, N-[(1-ethylpyrrolidin-2-yl)methyl]-2-{[(4-formylpyridin-2-yl)methyl]amino}-acetamide], the values for the half-maximal inhibitory concentration (IC50) in experiment [1] and in experiment [2] were more than 2.5 µM and 0.25 to 2.5 µM, respectively.

Turning to `CN(C)C(=O)CNCc1cc(/C=N\C2CC2)ccn1` [Compound 33], the IC50 in experiment [1] and in experiment [2] was 0.25 to 2.5 µM throughout.

As for `CC(C)C[C@H](NCc1cc(/C=N/CCO)ccn1)C(=O)N1CCCCC1` [Compound 95, (2S)-2-[({4-[[(2-hydroxyethyl)imino]-methyl]pyridin-2-yl}methyl)amino]-4-methyl-1-(piperidin-1-yl)pentan-1-one], the IC50 in experiment [1] and in experiment [2] was more than 2.5 µM throughout.

`CCN(CC)CCCCNC(=O)CNCc1cc(/C=N/C2CC2)ccn1` [Compound 48, 2-[({4-[N-cyclopropyl-carboximidoyl]pyridin-2-yl}methyl)amino]-N-[4-(diethylamino)-butyl]acetamide]: the half-maximal inhibitory concentration (IC50) in experiment [1] and in experiment [2] was more than 2.5 µM in each case.

For the molecule `CN(C)C/C=C/CNCc1cc(C=O)ccn1` [Compound 98, 2-({[(2E)-4-(dimethylamino)but-2-en-1-yl]amino}-methyl)pyridine-4-carbaldehyde], the results for the 50% inhibitory concentration (IC50) in experiment [1] and in experiment [2] were 0.25 to 2.5 µM and less than 0.25 µM, respectively.

Take `CCSCCNCc1cc(/C=N/C2CC2)ccn1` [Compound 39, N-{[2-({[2-(ethylsulfanyl)-ethyl]amino}methyl)pyridin-4-yl]methylidene}-cyclopropanamine]: the half-maximal inhibitory concentration (IC50) in experiment [1] and in experiment [2] was more than 2.5 µM in each case.

Turning to `CN(C)CCCCCNCc1cc(/C=N/C2CC2)ccn1` [Compound 47, N-{[2-({[5-(dimethylamino)-pentyl]amino}-methyl)pyridin-4-yl]methylidene}-cyclopropanamine], the IC50 is 0.25 to 2.5 µM in experiment [1] and less than 0.25 µM in experiment [2].

For the molecule `O=Cc1ccnc(CNCC(=O)N2CCC[C@@H]2CN2CCCC2)c1` [Compound 102, 2-[({2-oxo-2-[(2R)-2-(pyrrolidin-1-ylmethyl)pyrrolidin-1-yl]ethyl}amino)-methyl]pyridine-4-carbaldehyde], the half-inhibitory concentration (IC50) in experiment [1] and in experiment [2] was 0.25 to 2.5 µM in each case.

Regarding `CN(C)CCC/N=C/c1ccnc(CNCCCN(C)C)c1` [Compound 37, [3-(dimethylamino)propyl]-({4-[{[3-(dimethylamino)propyl]-imino}methyl]pyridin-2-yl}methyl)amine], the 50% inhibitory concentration (IC50) in experiment [1] is 0.25 to 2.5 µM; in experiment [2] it was less than 0.25 µM.

For `CNCc1ccnc(CNCCCN(C)Cc2ccccc2)c1` [Compound 17, benzyl(methyl){3-[({4-[(methylamino)methyl]-pyridin-2-yl)methyl)-amino]propyl}-amine], the IC50 in experiment [1] and in experiment [2] was more than 2.5 µM each time.

`CCN(CCN(C)C)C(=O)CNCc1cc(C2OCC(Cc3ccccc3)CN2C(=O)C(F)(F)F)ccn1` (stereo not drawn) [Compound 90, 2-[({4-[5-benzyl-3-(trifluoroacetyl)-1,3-oxazinan-2-yl]pyridin-2-yl}methyl)amino]-N-[2-(dimethylamino)-ethyl]-N-ethylacetamide]: the half-inhibitory concentration (IC50) in experiment [2] was less than 0.25 µM.

In turn, `c1ccc(CN2CCC[C@H]2CNCc2cc(CNCC3CC3)ccn2)cc1` [Compound 16, {[(2S)-1-benzylpyrrolidin-2-yl]methyl}[(4-{[(cyclopropylmethyl)-amino]methyl}pyridin-2-yl)methyl]amine] returned an IC50 in experiment [2] of more than 2.5 µM.

Regarding `CCN(CCN(C)C)C(=O)CNCc1cc(CNC(=O)C(F)(F)F)ccn1` [Compound 25, N-[(2-{[({[2-(dimethylamino)ethyl]-(ethyl)carbamoyl}-methyl)amino]methyl}-pyrtdin-4-yl)methyl]-2,2,2-trifluoroacetamide], the half-maximal inhibitory concentration (IC50) in experiment [2] was less than 0.25 µM.

In turn, `CCN(CCN(C)C)C(=O)CNCc1cc(C2OCC3(CC3)CN2C(=O)C(F)(F)F)ccn1` (stereo not drawn) [Compound 91, N-[2--(dimethylamino)-ethyl]-N-ethyl-2-[({4-[7-(trifluoroacetyl)-5-oxa-7-azaspiro[2.5]-octan-6-yl]pyridin-2-yl}methyl)amino]-acetamide] displayed an IC50 in experiment [2] of less than 0.25 µM.
